Results taken from publication PMC9322767, “Novel Unspecific Peroxygenase from Truncatella angustata Catalyzes the Synthesis of Bioactive Lipid Mediators” (Microorganisms, 2022).
Structures can show the parent of a compound that is named as a salt. Where two headings read alike, the source gives them in different places.

Key:
TanUPO [1] = settings: read-out: apparent kinetic parameters; co-substrate H2O2 2 mM; McIlvaine buffer pH 4.5
TanUPO [2] = system: T1, TanUPO; assay: HPLC-ELSD of […],15-EET formation; type: biochemical, Truncatella angustata; settings: co-substrate H2O2 (from glucose/glucose oxidase); 20 mM phosphate pH 7.0, 30 °C, 20% (v/v) acetone; sigmoidal kinetics (Hill)
T1 construct: native wild-type purified from culture of own fungal isolate; glycosylated heme-thiolate protein

Row | Km (TanUPO [1]) | Compound | Km (TanUPO [2])
1 | 257 µM | CCn1c(=NN=c2sc3cc(S(=O)(=O)O)ccc3n2CC)sc2cc(S(=O)(=O)O)ccc21 [ABTS, 2,2′-azino-di(3-ethylbenzthiazoline-6-sulfonate) di-ammonium salt] | 
2 |  | CCCCC/C=C\C/C=C\C/C=C\C/C=C\CCCC(=O)O [arachidonic acid, (5Z,8Z,11Z,14Z)-5,8,11,14-eicosatetraenoic acid] | ~200 µM
